Patent publication US12655142B2 (Merck Patent GmbH, priority 2019, dated 2026)
pIC50: −log10 of the molar value.

Assays:
[1] = Determination of Efflux-Ratio (ER) in Caco-2 cells; conditions: human, Caco-2, pH 7.4
[2] = target: T1, GIST430 cell line expressing constitutive active cKIT receptor tyrosine kinase (Δ560-576 deletion) (Homo sapiens, UniProt P10721, DEL560-576); assay: Cellular cKIT autophosphorylation (phospho-Y307-cKIT, Luminex bead assay) in GIST430 cells; type: cell-based; conditions: cKIT autophosphorylation, GIST430 cells, compounds 45 min; read-out: GIST 430 IC50
T1 construct: endogenous in cells; host or cells: GIST430 cells
T1 sequence (P10721 with tags, fused parts or gaps DEL560-576): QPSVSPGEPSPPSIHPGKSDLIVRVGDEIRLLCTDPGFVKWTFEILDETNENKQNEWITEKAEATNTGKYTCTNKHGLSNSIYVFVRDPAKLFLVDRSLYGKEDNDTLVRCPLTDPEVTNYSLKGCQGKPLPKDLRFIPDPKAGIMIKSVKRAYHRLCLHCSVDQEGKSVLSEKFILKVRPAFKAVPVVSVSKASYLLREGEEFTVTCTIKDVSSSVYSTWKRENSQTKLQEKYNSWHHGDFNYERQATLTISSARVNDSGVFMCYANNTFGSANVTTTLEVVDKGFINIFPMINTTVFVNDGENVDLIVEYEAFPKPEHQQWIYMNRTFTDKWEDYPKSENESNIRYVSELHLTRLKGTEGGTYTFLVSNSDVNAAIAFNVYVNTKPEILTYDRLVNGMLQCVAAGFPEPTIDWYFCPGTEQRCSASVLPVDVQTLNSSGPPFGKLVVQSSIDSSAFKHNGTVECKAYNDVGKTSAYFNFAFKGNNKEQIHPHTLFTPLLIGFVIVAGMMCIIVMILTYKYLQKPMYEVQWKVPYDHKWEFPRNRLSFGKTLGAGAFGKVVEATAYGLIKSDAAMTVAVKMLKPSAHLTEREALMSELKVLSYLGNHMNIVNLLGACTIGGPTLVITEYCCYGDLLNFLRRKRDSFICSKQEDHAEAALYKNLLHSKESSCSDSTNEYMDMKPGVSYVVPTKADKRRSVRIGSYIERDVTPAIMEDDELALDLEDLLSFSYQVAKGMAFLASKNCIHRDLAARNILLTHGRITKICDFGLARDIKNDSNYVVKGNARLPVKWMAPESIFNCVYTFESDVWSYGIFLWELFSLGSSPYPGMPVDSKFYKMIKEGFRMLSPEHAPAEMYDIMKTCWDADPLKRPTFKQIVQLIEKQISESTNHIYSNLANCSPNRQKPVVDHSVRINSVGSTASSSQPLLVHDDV
Protocol: Assay Principle for Cellular Testing of cKIT Mutant Inhibitors
The GIST430 cell line expressing constitutive active cKIT receptor tyrosine kinase (Δ560-576 deletion) and the Imatinib resistant GIST430/654 cell line expressing mutated constitutively active cKIT receptor tyrosine kinase (Δ560-576 deletion and V654A point mutation) were employed for assessing cellular potency of compounds. Cellular activity of mutant cKIT was determined by the degree of cKIT autophosphorylation at tyrosine 307 using a Luminex-based bead assay. GIST430 cells were plated with 22,000 cells per well of a 96-well plate in 100 μl medium (85% IMDM/15% FCS) and GIST430/654 cells were plated with 25,000 cells per well of a 96-well plate in 100 μl medium (85% IMDM/15% FCS supplemented with 100 nM Imatinib). At the following day compounds were added in a serial dilution for 45 min. Then, cells were lysed with 90 μl lysis buffer (20 mM Hepes pH 7.5, 200 mM NaCl, 1.5 mM MgCl2×6H2O, 0.4 mM EDTA, 1% Triton-X-100, 1% Phosphatase-Inhibitor II, 20 mM β-Glycerolphosphat, 0.1% Protease-Inhibitor Cocktail III, 0.01% Benzonase) and lysates were cleared by centrifugation through a 96-well filter plate (0.65 μm). Samples were incubated with Luminex-beads which were coupled with an anti-total cKIT antibody overnight at 4° C. under gentle agitation. For detection of phospho-Y307-cKIT a phosphospecific antibody and a species-specific PE-labeled secondary antibody were added. The amount of phospho-Y307-cKIT was determined in a Luminex 200 instrument measuring 100 events per well within 60 seconds.
Counts from samples treated with compounds were calculated as percent of control from solvent treated (0.3% DMSO) samples. Dose-response curves were fitted and IC50 values were determined using Genedata Screener software.

c-Kit(V654A) = target: T2, c-Kit(V654A) (Homo sapiens, UniProt P10721, V654A); assay: c-Kit(V654A) assay (33P-ATP filter binding kinase assay); type: biochemical; conditions: recombinant human c-Kit aa 544-end V654A, ATP 200 μM
T2 construct: recombinant human c-Kit, amino acids 544-end containing the V654A mutation; GST (N)
T2 sequence (P10721 544-976 V654A): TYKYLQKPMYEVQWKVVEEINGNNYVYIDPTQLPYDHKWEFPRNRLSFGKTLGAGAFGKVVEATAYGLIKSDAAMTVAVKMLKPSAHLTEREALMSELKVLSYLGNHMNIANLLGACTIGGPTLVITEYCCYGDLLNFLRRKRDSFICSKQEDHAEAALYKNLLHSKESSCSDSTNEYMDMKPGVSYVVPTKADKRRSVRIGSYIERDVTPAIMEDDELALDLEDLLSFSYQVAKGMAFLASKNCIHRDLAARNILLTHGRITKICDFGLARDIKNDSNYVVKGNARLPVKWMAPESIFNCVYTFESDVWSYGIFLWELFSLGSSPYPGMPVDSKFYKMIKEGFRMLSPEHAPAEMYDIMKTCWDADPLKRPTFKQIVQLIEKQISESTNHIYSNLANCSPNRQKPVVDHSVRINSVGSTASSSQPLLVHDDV
Outline: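 Radiometric filter-binding read-out: substrate 33P incorporation counted by scintillation after P30 filtermat washes in 75 mM phosphoric acid and methanol. Enzyme: N-GST recombinant human c-Kit aa 544-end carrying V654A.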

[3] = target: T3, GIST430/654 cell line expressing mutated constitutively active cKIT receptor tyrosine kinase (Δ560-576 deletion and V654A point mutation) (Homo sapiens, UniProt P10721, DEL560-576/V654A); assay: Cellular cKIT autophosphorylation (phospho-Y307-cKIT, Luminex bead assay) in GIST430/654 cells; type: cell-based; conditions: compounds 45 min, read-out: GIST 430/654 IC50
T3 construct: endogenous in cells; host or cells: GIST430/654 cells
T3 sequence (P10721 with tags, fused parts or gaps DEL560-576/V654A): as the sequence (P10721 with tags, fused parts or gaps DEL560-576) above, with V612A counted along it
Outline: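 GIST430 (Δ560-576) and imatinib-resistant GIST430/654 (plus V654A; grown with 100 nM imatinib) cells were plated in IMDM/15% FCS and treated next day with serially diluted compound for 45 min. Lysates were captured on anti-total-cKIT Luminex beads overnight at 4 °C and probed for phospho-Y307. IC50 was taken from percent of 0.3% DMSO control.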

| efflux ratio at 2 h, 1 μM [1] | pIC50 [2] | pIC50 (c-Kit(V654A)) | pIC50 [3] | Compound |
| --- | --- | --- | --- | --- |
| < 15 | 8.74 | 8.89 | 7.23 | COc1ccn2c(-c3cc(NCc4ccc(-c5coc(C)n5)cc4)ncn3)cnc2c1 [A42, 6-{7-methoxyimidazo[1,2-a]pyridin-3-yl}-N-{[4-(2-methyl-1,3-oxazol-4-yl)phenyl]methyl}pyrimidin-4-amine] |
| < 15 | 8.41 | 8.14 | 7.30 | Cn1cc(-c2ccc(CNc3cc(-c4cnc5cc(OCCN6CCOCC6)ccn45)ncn3)cc2)cn1 [A56, [4-(1-methyl-1H-pyrazol-4-yl)-benzyl]-{6-[7-(2-morpholin-4-yl-ethoxy)-imidazo[1,2-a]pyridin-3-yl]-pyrimidin-4-yl}-amine] |
| < 15 | 8.43 | 8.39 | 7.49 | CN1CCC(COc2ccn3c(-c4cc(NCc5ccc(-c6cnn(C)c6)cc5)ncn4)cnc3c2)CC1 [A62, {6-[7-(1-methyl-piperidin-4-ylmethoxy)-imidazo[1,2-a]pyridin-3-yl]-pyrimidin-4-yl}-[4-(1-methyl-1H-pyrazol-4-yl)-benzyl]-amine] |
| < 15 | 8.68 | 8.11 | 7.28 | Cn1ncc(-c2ccc(CNc3cc(-c4cnc5cc(OCC6CCN(C7COC7)CC6)ccn45)ncn3)cc2)n1 [A76, [4-(2-methyl-2H-[1,2,3]triazol-4-yl)-benzyl]-{6-[7-(1-oxetan-3-yl-piperidin-4-ylmethoxy)-imidazo[1,2-a]pyridin-3-yl]-pyrimidin-4-yl}-amine] |
| < 15 | 8.44 | 8.04 | 7.10 | Cn1cc(-c2ccc(CNc3cc(-c4cnc5cc(OCC6CCN(C7COC7)CC6)ccn45)ncn3)cc2)cn1 [A78, [4-(1-methyl-1H-pyrazol-4-yl)-benzyl]-{6-[7-(1-oxetan-3-yl-piperidin-4-ylmethoxy)-imidazo[1,2-a]pyridin-3-yl]-pyrimidin-4-yl}-amine] |
| < 15 | 8.39 | 8.82 | 7.55 | CN1CCC(COc2ccn3c(-c4cc(NCc5ccc(-c6cnn(C)n6)cc5)ncn4)cnc3c2)CC1 [A79, {6-[7-(1-methyl-piperidin-4-ylmethoxy)-imidazo[1,2-a]pyridin-3-yl]-pyrimidin-4-yl}-[4-(2-methyl-2H-[1,2,3]triazol-4-yl)-benzyl]-amine] |
| < 15 | 8.48 | 8.19 | 7.19 | Cn1ncc(-c2ccc(CNc3cc(-c4cnc5cc(OCC(C)(C)O)ccn45)ncn3)cc2)n1 [A85, 2-methyl-1-(3-{6-[4-(2-methyl-2H-[1,2,3]triazol-4-yl)-benzylamino]-pyrimidin-4-yl}-imidazo[1,2-a]pyridin-7-yloxy)-propan-2-ol] |
| < 15 | 8.82 | 8.48 | 7.40 | Cn1ncc(-c2ccc(CNc3cc(-c4cnc5cc(OCCN6CC7(COC7)C6)ccn45)ncn3)cc2)n1 [A108, [4-(2-methyl-2H-[1,2,3]triazol-4-yl)-benzyl]-(6-{7-[2-(2-oxa-6-aza-spiro[3.3]hept-6-yl)-ethoxy]-imidazo[1,2-a]pyridin-3-yl}-pyrimidin-4-yl)-amine] |
| < 15 | 7.32 | 8.15 | 6.47 | CO[C@@H]1CCN(c2ccc(CNc3cc(-c4cnc5ccccn45)ncn3)cn2)C1 [A146, 6-{imidazo[1,2-a]pyridin-3-yl}-N-({6-[(3R)-3-methoxypyrrolidin-1-yl]pyridin-3-yl}methyl)pyrimidin-4-amine] |
| < 15 | 8.14 | 8.27 | 6.37 | c1ccn2c(-c3cc(NCc4ccc(N5CCCC5)nc4)ncn3)cnc2c1 [A147, (6-imidazo[1,2-a]pyridin-3-yl-pyrimidin-4-yl)-(6-pyrrolidin-1-yl-pyridin-3-ylmethyl)-amine] |
| < 15 | 8.14 | 8.31 | 6.66 | F[C@H]1CCN(c2ccc(CNc3cc(-c4cnc5ccccn45)ncn3)cn2)C1 [A148, N-({6-[(3S)-3-fluoropyrrolidin-1-yl]pyridin-3-yl}methyl)-6-{imidazo[1,2-a]pyridin-3-yl}pyrimidin-4-amine] |
| < 15 | 7.92 | 8.05 | 6.85 | FC1(F)CCN(c2ccc(CNc3cc(-c4cnc5ccccn45)ncn3)cn2)C1 [A150, [6-(3,3-difluoro-pyrrolidin-1-yl)-pyridin-3-ylmethyl]-(6-imidazo[1,2-a]pyridin-3-yl-pyrimidin-4-yl)-amine] |
| < 15 | 8.00 | 7.82 | 6.52 | CO[C@H]1CCN(c2ccc(CNc3cc(-c4cnc5ccccn45)ncn3)cn2)C1 [A151, 6-{imidazo[1,2-a]pyridin-3-yl}-N-({6-[(3S)-3-methoxypyrrolidin-1-yl]pyridin-3-yl}methyl)pyrimidin-4-amine] |
| < 15 | 8.57 | 8.20 | 7.12 | Cn1cc(-c2ccc(CNc3cc(-c4cnc5cc(OCCO)ccn45)ncn3)cc2)cn1 [A172, 2-({3-[6-({[4-(1-methyl-1H-pyrazol-4-yl)phenyl]methyl}amino)pyrimidin-4-yl]imidazo[1,2-a]pyridin-7-yl}oxy)ethan-1-ol] |
| < 15 | 7.66 | 8.43 | 7.24 | Cn1ncc(-c2ccc(CNc3cc(-c4cnc5cc(OCCO)ccn45)ncn3)cc2)n1 [A173, 2-({3-[6-({[4-(2-methyl-2H-1,2,3-triazol-4-yl)phenyl]methyl}amino)pyrimidin-4-yl]imidazo[1,2-a]pyridin-7-yl}oxy)ethan-1-ol] |
| < 15 | 7.82 | 7.77 | 7.47 | Cn1cc(-c2ccc(CNc3cc(-c4cnc5cc(N6CCCC6)ccn45)ncn3)cc2)cn1 [A177, [4-(1-methyl-1H-pyrazol-4-yl)-benzyl]-[6-(7-pyrrolidin-1-yl-imidazo[1,2-a]pyridin-3-yl)-pyrimidin-4-yl]-amine] |
| < 15 | 8.42 | 7.72 | 7.33 | Cn1cc(-c2ccc(CNc3cc(-c4cnc5cc(N6CCC(CCO)C6)ccn45)ncn3)cc2)cn1 (centres unmarked) [A178, 2-[1-(3-{6-[4-(1-methyl-1H-pyrazol-4-yl)-benzylamino]-pyrimidin-4-yl}-imidazo[1,2-a]pyridin-7-yl)-pyrrolidin-3-yl]-ethanol] |
| < 15 | 8.89 | 8.17 | 7.23 | Cn1ncc(-c2ccc(CNc3cc(-c4cnc5cc(OCCCN6CCN(C7COC7)CC6)ccn45)ncn3)cc2)n1 [A185, [4-(2-methyl-2H-[1,2,3]triazol-4-yl)-benzyl]-(6-{7-[3-(4-oxetan-3-yl-piperazin-1-yl)-propoxy]-imidazo[1,2-a]pyridin-3-yl}-pyrimidin-4-yl)-amine] |
| 15 to 50 | 8.36 | 8.11 | 7.12 | Cn1cc(-c2ccc(CNc3cc(-c4cnc5cc(OCCN6CCn7nncc7C6)ccn45)ncn3)cc2)cn1 [A217, (6-{7-[2-(6,7-dihydro-4H-[1,2,3]triazolo[1,5-a]pyrazin-5-yl)-ethoxy]-imidazo[1,2-a]pyridin-3-yl}-pyrimidin-4-yl)-[4-(1-methyl-1H-pyrazol-4-yl)-benzyl]-amine] |
| < 15 | 8.57 | 8.29 | 7.25 | Cn1cc(-c2ccc(CNc3cc(-c4cnc5cc(OCCCNC6COC6)ccn45)ncn3)cc2)cn1 [A258, N-{[4-(1-methyl-1H-pyrazol-4-yl)phenyl]methyl}-6-(7-{3-[(oxetan-3-yl)amino]propoxy}imidazo[1,2-a]pyridin-3-yl)pyrimidin-4-amine] |
